# Measurements published in ChEMBL document CHEMBL1201862, “PubChem BioAssay data set” (2004).
# Calls of active or inactive are those of the source.
# How the values were obtained:
# [1] = target: T1, Short transient receptor potential channel 4 (Mus musculus, UniProt Q9QUQ5); assay: mouse TRPC4 channel inhibitors, dose response, cell-based, HEK293 TRPC4/mu-opioid, Fluo-4 calcium (AID 434942); assay type: functional;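 note: potency of inhibitors blocking the TRPC4 calcium response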
# T1 sequence (Q9QUQ5 whole entry): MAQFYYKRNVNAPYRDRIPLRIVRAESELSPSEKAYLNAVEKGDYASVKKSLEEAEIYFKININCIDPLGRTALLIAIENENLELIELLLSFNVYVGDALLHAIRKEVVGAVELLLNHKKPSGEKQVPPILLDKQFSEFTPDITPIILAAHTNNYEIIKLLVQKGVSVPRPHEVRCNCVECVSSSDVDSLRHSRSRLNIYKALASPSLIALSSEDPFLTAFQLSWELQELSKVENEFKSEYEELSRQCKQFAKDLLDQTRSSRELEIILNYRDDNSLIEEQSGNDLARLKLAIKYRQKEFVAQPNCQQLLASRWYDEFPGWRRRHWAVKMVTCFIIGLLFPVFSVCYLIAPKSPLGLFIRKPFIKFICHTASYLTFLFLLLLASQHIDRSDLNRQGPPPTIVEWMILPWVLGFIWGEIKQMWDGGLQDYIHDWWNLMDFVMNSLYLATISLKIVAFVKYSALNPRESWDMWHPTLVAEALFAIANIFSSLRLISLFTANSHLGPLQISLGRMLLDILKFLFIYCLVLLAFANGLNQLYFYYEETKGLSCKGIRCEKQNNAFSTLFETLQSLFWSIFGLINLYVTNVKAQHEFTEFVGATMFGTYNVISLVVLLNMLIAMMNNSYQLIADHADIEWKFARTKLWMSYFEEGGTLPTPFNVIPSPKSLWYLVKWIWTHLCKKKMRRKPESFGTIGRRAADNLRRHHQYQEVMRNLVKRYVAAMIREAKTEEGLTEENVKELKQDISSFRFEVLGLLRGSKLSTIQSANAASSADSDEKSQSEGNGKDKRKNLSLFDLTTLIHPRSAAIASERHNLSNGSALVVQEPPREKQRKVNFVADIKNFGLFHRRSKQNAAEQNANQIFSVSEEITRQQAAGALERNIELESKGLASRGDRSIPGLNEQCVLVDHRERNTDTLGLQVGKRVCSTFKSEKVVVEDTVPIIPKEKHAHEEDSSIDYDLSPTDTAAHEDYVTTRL
# [2] = target: DNA dC->dU-editing enzyme APOBEC-3A (Homo sapiens, UniProt P31941); assay: APOBEC3A DNA deaminase inhibitors, dose response, biochemical (AID 504722); assay type: functional
# DNA dC->dU-editing enzyme APOBEC-3A, sequence (P31941 whole entry): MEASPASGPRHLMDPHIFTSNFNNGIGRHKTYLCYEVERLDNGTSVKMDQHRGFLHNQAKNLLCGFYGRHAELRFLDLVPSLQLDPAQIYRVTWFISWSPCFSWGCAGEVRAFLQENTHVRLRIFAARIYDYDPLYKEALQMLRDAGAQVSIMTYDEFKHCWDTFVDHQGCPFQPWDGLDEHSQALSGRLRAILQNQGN
# [3] = target: T1, Short transient receptor potential channel 4; assay: mouse TRPC4 channel activators, dose response, cell-based, HEK293 TRPC4/mu-opioid, Fluo-4 calcium (AID 434937); assay type: functional
# [4] = target: T2, Replicative DNA helicase DnaB (Mycobacterium tuberculosis, UniProt P9WMR3); assay: DnaB intein splicing inhibitors, dose response, biochemical, cell-free fluorescence (AID 449749); assay type: functional
# T2 sequence (P9WMR3 whole entry): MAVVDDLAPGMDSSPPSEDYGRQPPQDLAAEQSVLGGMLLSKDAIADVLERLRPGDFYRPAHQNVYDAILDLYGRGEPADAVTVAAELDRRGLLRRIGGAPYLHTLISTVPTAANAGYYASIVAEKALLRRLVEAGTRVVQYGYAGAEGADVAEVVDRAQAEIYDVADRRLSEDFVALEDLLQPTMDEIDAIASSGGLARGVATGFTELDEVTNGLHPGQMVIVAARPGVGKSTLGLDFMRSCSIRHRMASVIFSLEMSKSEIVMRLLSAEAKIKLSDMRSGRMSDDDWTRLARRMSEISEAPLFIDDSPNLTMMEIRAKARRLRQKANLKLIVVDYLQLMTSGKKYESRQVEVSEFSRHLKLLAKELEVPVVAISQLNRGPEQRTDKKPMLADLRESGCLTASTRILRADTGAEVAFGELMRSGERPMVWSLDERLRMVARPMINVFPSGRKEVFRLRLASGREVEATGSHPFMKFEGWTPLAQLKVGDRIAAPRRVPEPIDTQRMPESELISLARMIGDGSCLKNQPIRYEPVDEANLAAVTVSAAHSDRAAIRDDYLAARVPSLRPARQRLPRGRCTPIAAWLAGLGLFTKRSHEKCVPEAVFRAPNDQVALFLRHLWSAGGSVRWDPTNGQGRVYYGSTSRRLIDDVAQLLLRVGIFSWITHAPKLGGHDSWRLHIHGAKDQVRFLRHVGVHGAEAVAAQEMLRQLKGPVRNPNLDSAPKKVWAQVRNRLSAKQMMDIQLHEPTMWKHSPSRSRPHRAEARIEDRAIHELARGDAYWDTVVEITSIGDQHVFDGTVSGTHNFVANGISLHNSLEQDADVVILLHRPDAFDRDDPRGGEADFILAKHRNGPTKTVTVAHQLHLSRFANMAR
# Protein RecA = target: T3, Protein RecA (Mycobacterium tuberculosis, UniProt P9WHJ3); assay: Fluorescence Cell-Free Homogeneous Dose Retest to Identify Inhibitors of RecA-Intein Splicing Activity. [Related pubchem assays (depositor defined):AID2097, AID2223, AID489010, AID492950]; assay type: functional
# T3 sequence (P9WHJ3 whole entry): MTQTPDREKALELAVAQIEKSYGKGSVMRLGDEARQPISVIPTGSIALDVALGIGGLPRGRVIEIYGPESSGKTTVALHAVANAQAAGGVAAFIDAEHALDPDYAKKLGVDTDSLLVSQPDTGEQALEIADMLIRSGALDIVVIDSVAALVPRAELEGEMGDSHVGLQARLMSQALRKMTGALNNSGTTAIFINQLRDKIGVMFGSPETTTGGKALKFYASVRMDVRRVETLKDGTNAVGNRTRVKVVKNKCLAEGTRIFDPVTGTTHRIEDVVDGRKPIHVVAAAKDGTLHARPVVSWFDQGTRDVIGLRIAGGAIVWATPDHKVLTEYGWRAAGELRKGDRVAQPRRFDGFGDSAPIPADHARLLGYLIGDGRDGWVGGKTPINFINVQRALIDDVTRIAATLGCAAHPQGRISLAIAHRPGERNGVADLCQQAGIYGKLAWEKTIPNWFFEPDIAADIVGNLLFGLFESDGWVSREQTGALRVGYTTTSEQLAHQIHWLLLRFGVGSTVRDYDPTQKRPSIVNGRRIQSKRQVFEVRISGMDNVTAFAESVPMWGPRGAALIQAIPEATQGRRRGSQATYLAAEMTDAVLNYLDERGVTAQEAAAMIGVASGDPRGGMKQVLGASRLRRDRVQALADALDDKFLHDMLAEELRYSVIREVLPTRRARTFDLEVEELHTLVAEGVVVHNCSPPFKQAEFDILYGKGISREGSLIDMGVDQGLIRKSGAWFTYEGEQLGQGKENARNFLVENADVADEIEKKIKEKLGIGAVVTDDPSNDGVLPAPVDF
# [5] = target: DNA dC->dU-editing enzyme APOBEC-3G (Homo sapiens, UniProt Q9HC16); assay: Dose Response confirmation of small molecule APOBEC3G DNA Deaminase Inhibitors via a fluorescence-based single-stranded DNA deaminase assay. [Related pubchem assays (depositor defined):AID493012, AID493028]; assay type: functional
# DNA dC->dU-editing enzyme APOBEC-3G, sequence (Q9HC16 whole entry): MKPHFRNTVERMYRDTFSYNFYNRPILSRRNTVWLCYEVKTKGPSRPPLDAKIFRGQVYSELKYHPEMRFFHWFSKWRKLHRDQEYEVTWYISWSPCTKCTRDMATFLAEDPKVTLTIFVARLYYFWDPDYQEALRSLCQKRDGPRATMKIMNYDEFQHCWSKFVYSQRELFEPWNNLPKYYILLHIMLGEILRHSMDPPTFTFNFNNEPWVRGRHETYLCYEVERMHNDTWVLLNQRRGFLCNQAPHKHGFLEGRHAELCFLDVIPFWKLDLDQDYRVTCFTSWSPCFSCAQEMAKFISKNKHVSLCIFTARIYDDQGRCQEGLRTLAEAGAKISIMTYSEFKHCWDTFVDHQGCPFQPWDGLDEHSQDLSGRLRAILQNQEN
# [6] = target: T4, Corticotropin-releasing factor receptor 2/Corticotropin-releasing factor-binding protein (Homo sapiens, UniProt P24387+Q13324); assay: activators of CRF receptor 2 with binding protein – uHTS hits, confirmation (AID 602473); assay type: functional; details: read-out: EC50_Mean
# T4 sequence (Q13324 whole entry): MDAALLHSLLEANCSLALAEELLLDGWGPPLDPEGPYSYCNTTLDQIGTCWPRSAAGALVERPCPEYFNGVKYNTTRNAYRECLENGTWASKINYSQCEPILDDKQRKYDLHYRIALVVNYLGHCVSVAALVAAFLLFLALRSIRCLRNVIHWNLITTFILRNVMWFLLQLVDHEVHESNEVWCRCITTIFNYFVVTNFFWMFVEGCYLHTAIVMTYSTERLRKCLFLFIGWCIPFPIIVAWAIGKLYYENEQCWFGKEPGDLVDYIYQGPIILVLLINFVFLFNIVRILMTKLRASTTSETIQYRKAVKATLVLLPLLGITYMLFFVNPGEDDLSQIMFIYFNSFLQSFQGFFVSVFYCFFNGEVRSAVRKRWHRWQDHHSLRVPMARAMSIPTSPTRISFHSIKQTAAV
# T4 sequence (P24387 whole entry): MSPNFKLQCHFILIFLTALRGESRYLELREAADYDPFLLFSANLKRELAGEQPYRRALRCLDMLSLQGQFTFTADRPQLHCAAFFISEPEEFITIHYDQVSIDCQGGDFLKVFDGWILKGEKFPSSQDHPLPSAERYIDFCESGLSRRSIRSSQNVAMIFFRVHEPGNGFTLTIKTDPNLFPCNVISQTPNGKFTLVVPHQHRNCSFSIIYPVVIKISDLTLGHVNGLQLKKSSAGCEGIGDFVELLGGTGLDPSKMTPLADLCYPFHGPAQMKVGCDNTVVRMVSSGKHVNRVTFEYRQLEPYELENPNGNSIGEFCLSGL
# [7] = target: T4, Corticotropin-releasing factor receptor 2/Corticotropin-releasing factor-binding protein; assay: Dose Response confirmation of uHTS hits for small molecule antagonists of the CRF-binding protein and CRF-R2 receptor complex.; assay type: functional; details: read-out: IC50_Mean
# [8] = CRF-BP/CRF-R2 complex antagonists, dose response, cell-based, uHTS hits, 384-well (AID 651639); assay type: functional, Homo sapiens; details: read-out: IC50_Mean
# [9] = target: T5, Mannose-6-phosphate isomerase (Homo sapiens, UniProt P34949); assay: human PMI inhibitors, high substrate, primary screen, biochemical, fluorescence intensity, high mannose 6-phosphate (AID 1220)
# T5 sequence (P34949 whole entry): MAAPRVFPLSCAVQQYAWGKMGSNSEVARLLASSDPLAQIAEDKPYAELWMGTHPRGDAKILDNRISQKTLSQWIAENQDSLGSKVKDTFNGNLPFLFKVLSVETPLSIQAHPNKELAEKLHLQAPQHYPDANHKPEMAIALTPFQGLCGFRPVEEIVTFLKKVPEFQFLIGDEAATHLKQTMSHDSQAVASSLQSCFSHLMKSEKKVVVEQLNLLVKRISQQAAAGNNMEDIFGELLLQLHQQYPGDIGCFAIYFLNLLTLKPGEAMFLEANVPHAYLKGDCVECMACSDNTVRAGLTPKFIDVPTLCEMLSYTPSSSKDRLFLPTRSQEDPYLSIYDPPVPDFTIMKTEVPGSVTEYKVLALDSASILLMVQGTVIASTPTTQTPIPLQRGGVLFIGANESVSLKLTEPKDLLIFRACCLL
# [10] = target: T6, Rac GTPase-activating protein 1 (Homo sapiens, UniProt Q9H0H5); assay: MgcRacGAP GTPase-activating activity inhibitors, confirmation, biochemical, ADP Hunter fluorescence, primary and confirmatory (AID 624330); assay type: functional
# T6 sequence (Q9H0H5 whole entry): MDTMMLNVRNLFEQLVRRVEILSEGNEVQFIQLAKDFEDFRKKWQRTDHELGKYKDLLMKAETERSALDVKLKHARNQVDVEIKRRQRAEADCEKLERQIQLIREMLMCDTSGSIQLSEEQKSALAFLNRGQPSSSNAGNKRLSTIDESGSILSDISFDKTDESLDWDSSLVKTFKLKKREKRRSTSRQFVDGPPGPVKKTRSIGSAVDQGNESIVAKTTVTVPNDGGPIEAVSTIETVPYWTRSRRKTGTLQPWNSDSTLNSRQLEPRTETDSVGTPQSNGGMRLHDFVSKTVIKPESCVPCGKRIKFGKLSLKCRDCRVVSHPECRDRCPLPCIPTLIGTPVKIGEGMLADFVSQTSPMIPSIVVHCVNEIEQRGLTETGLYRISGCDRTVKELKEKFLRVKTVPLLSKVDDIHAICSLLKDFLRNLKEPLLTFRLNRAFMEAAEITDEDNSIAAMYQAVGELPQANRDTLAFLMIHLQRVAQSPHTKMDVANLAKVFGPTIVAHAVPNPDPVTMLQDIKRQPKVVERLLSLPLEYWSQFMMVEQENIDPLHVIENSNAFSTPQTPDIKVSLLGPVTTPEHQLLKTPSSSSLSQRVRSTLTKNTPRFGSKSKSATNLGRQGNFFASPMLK
# SUMO-activating enzyme = SUMO-activating enzyme (Homo sapiens, UniProt Q9UBT2); assay: inhibitors of in vitro SUMOylation cascade, primary screen, biochemical, HTRF, uHTS (AID 2006); assay type: protein-complex assay
# SUMO-activating enzyme, sequence (Q9UBE0 whole entry): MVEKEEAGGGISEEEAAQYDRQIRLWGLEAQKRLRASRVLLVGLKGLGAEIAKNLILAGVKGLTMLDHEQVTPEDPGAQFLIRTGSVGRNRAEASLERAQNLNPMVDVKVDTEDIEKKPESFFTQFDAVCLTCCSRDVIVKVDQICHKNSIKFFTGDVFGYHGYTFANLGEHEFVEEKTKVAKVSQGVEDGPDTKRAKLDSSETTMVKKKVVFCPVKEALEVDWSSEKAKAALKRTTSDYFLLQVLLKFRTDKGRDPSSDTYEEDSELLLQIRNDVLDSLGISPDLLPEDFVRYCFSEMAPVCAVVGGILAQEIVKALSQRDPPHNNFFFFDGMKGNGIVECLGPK
# SUMO-activating enzyme, sequence (Q9UBT2 whole entry): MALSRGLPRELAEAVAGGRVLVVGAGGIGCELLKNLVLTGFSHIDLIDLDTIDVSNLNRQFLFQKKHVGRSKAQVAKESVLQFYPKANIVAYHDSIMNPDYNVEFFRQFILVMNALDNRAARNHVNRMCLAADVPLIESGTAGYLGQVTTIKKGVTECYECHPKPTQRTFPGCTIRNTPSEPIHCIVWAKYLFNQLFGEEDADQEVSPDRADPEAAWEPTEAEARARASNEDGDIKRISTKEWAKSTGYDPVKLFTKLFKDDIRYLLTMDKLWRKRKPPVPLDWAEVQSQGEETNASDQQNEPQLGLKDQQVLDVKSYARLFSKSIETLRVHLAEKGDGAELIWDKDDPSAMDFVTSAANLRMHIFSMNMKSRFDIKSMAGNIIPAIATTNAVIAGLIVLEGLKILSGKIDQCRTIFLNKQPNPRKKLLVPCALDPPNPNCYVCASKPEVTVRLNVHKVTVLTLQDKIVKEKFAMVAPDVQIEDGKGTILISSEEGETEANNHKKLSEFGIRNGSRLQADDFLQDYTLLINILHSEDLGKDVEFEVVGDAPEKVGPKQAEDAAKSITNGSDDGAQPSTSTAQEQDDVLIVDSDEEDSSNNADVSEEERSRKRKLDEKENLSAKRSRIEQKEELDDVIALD
smiles,measurement,setting,value
CCOC(=O)C1(Cc2ccccc2)CCN(CC2CC=CCC2)CC1 (stereo not drawn),EC50,[1],13.3 µM (active)
Cc1ccccc1C(=O)NNC(=S)NC(=O)COc1ccccc1,IC50,[2],> 100 µM (inactive)
same,EC50,[3],5.31 µM (active)
same,AC50,[4],29 µM (active)
same,EC50,Protein RecA,17.7 µM (active)
same,IC50,[5],12.7 µM (active)
COC(=O)CSc1nn(-c2ccc(F)cc2)c(=S)s1,EC50,[6],> 53 µM (inactive)
same,IC50,[7],4.86 µM (active)
same,EC50,[1],6.68 µM (active)
same,IC50,[8],> 20 µM (inactive)
COc1ccc2c(c1)-c1nc(/N=C/c3cccc(OC)c3O)sc1CC2,IC50,[9],> 50 µM (not active)
same,IC50,[10],23.7 µM (active)
same,IC50,SUMO-activating enzyme,> 100 µM (inactive)
